{
  "source": "patent US20170318812A1",
  "about": "“Plant and Crop Growth Regulating/Biostimulant Formulations and Methods of Use” (Arysta Lifescience North America, LLC, priority 2014, published 2017)",
  "test_system": "TRZAX Triticum aestivum (Soft wheat)",
  "experiment": "Ipfencarbazone biostimulant effect, early post emergence foliar application, greenhouse pots, plant height: wheat",
  "assay_type": "in vivo",
  "description": "The original objective of this Example was to evaluate the herbicidal effect of ipfencarbazone when applied as a post emergent treatment to a range of selected crops and weeds. Unexpectedly, crop plant growth stimulation was observed. The actual species of weeds and crops are listed in the summary data tabulated below and in FIGS. 1-13. By convention each plant species has a Bayer code (5-letter name) with the scientific name for the plant referenced in FIGS. 1-13. In each Figure, each tray contains the same configuration of weeds and/or crops. In each Figure there is one replication of each treatment (six treatments in total). The top three photographs in each Figure show the Bayer Codes and bottom three photographs are aligned with the top three facilitating viewing of the same plant species. Throughout the Examples various abbreviations as conventional shorthand notation and will be appreciated by those skilled in the art. Some exemplary abbreviations include, “CV”=Co-efficient of Variation,” “LSD”=Least Significant Difference” (G/L (gram per L) AND GA/L (gram of active ingredient per L); “SC”=suspension concentrate formulation. The diluent in all treatments was water. By convention factors that are identical in all treatments (e.g. diluent and surfactant) are not listed in each treatment.\nMethods: The indicated size pots (see Tables below) are filled with a specific soil, the soil properties being indicated below. The referenced crops and weeds are planted by hand in each pot. […] The experiments include six treatments each replicated three times on each crop/weed species. At a specific time after emergence each crop and weed species was treated with ipfencarbazone plus a non-ionic surfactant (NIS). In the present Example, the surfactant employed was ENERGIC™ (non-ionic surfactant). The application timing is indicated in each of the Tables (1 or 2 leaf stage) below. Ipfencarbazone plus surfactant was diluted in water and applied at a rate equivalent to about 250 L/ha. Ipfencarbazone was applied using a track sprayer. After treatment, the pots were randomized in a greenhouse. At each assessment (indicated by “days after treatment” or DAT) the height of each plant was measured. The letters next to each mean indicate the level of statistical significance.\nReplications: 3, Untreated treatments: 1, Design: Randomized Complete Block (RCB), Treatment units: Treated ‘Plot’ experimental unit size, Dry Form. Unit: %, Treated ‘Plot’ experimental unit size Width: 1 meter, Treated ‘Plot’ experimental unit size Length: 1.4 meters, Application volume: 250 L/ha, Mix size: 0.15 liters, […]",
  "key": {"[1]": {"settings": "TRZAX BRS327, 125 g ai/ha, 28 DA-A"}, "[2]": {"settings": "TRZAX BRS327, 250 g ai/ha, 15 DA-A"}, "[3]": {"settings": "TRZAX BRS327, 250 g ai/ha, 28 DA-A"}, "[4]": {"settings": "TRZAX BRS327, 500 g ai/ha, 15 DA-A"}, "[5]": {"settings": "TRZAX BRS327, 500 g ai/ha, 28 DA-A"}, "[6]": {"settings": "TRZAX BRS327, 1000 g ai/ha, 15 DA-A"}, "[7]": {"settings": "TRZAX BRS327, 1000 g ai/ha, 28 DA-A"}, "[8]": {"settings": "TRZAX Iguaçú, 62.5 g ai/ha, 15 DA-A"}, "[9]": {"settings": "TRZAX Iguaçú, 62.5 g ai/ha, 28 DA-A"}, "[10]": {"settings": "TRZAX Iguaçú, 125 g ai/ha, 15 DA-A"}, "[11]": {"settings": "TRZAX Iguaçú, 125 g ai/ha, 28 DA-A"}, "[12]": {"settings": "TRZAX Iguaçú, 250 g ai/ha, 15 DA-A"}, "[13]": {"settings": "TRZAX Iguaçú, 250 g ai/ha, 28 DA-A"}, "[14]": {"settings": "TRZAX Iguaçú, 500 g ai/ha, 15 DA-A"}, "[15]": {"settings": "TRZAX Iguaçú, 500 g ai/ha, 28 DA-A"}, "[16]": {"settings": "TRZAX Iguaçú, 1000 g ai/ha, 15 DA-A"}, "[17]": {"settings": "TRZAX Iguaçú, 1000 g ai/ha, 28 DA-A"}, "[18]": {"settings": "TRZAX Itaipú, 62.5 g ai/ha, 15 DA-A"}, "[19]": {"settings": "TRZAX Itaipú, 62.5 g ai/ha, 28 DA-A"}, "[20]": {"settings": "TRZAX Itaipú, 125 g ai/ha, 15 DA-A"}, "[21]": {"settings": "TRZAX Itaipú, 125 g ai/ha, 28 DA-A"}, "[22]": {"settings": "TRZAX Itaipú, 250 g ai/ha, 15 DA-A"}, "[23]": {"settings": "TRZAX Itaipú, 250 g ai/ha, 28 DA-A"}, "[24]": {"settings": "TRZAX Itaipú, 500 g ai/ha, 15 DA-A"}, "[25]": {"settings": "TRZAX Itaipú, 500 g ai/ha, 28 DA-A"}, "[26]": {"settings": "TRZAX Itaipú, 1000 g ai/ha, 15 DA-A"}, "[27]": {"settings": "TRZAX Itaipú, 1000 g ai/ha, 28 DA-A"}},
  "data": [
    {"smiles": "CC(C)N(C(=O)n1cnn(-c2ccc(Cl)cc2Cl)c1=O)c1ccc(F)cc1F", "note": "[ARY-0572-001, ipfencarbazone]", "values": [
      {"measurement": "HEIGHT, treatment mean", "setting": "TRZAX BRS327, 125 g ai/ha, 15 DA-A", "value": 27.6, "unit": "a cm"},
      {"measurement": "HEIGHT, percent of untreated check (APoC)", "setting": "[1]", "value": "(156.7%)"},
      {"measurement": "HEIGHT, treatment mean", "setting": "[1]", "value": 35.0, "unit": "a cm"},
      {"measurement": "HEIGHT, percent of untreated check (APoC)", "setting": "[2]", "value": "(171.4%)"},
      {"measurement": "HEIGHT, treatment mean", "setting": "[2]", "value": 32.0, "unit": "a cm"},
      {"measurement": "HEIGHT, percent of untreated check (APoC)", "setting": "[3]", "value": "(204.0%)"},
      {"measurement": "HEIGHT, treatment mean", "setting": "[3]", "value": 45.6, "unit": "a cm"},
      {"measurement": "HEIGHT, percent of untreated check (APoC)", "setting": "[4]", "value": "(130.7%)"},
      {"measurement": "HEIGHT, treatment mean", "setting": "[4]", "value": 24.4, "unit": "a cm"},
      {"measurement": "HEIGHT, percent of untreated check (APoC)", "setting": "[5]", "value": "(141.3%)"},
      {"measurement": "HEIGHT, treatment mean", "setting": "[5]", "value": 31.6, "unit": "a cm"},
      {"measurement": "HEIGHT, percent of untreated check (APoC)", "setting": "[6]", "value": "(92.9%)"},
      {"measurement": "HEIGHT, treatment mean", "setting": "[6]", "value": 17.3, "unit": "a cm"},
      {"measurement": "HEIGHT, percent of untreated check (APoC)", "setting": "[7]", "value": "(126.4%)"},
      {"measurement": "HEIGHT, treatment mean", "setting": "[7]", "value": 28.2, "unit": "a cm"},
      {"measurement": "HEIGHT, percent of untreated check (APoC)", "setting": "[8]", "value": "(158.8%)"},
      {"measurement": "HEIGHT, treatment mean", "setting": "[8]", "value": 24.6, "unit": "a cm"},
      {"measurement": "HEIGHT, percent of untreated check (APoC)", "setting": "[9]", "value": "(129.6%)"},
      {"measurement": "HEIGHT, treatment mean", "setting": "[9]", "value": 29.2, "unit": "bc cm"},
      {"measurement": "HEIGHT, percent of untreated check (APoC)", "setting": "[10]", "value": "(168.5%)"},
      {"measurement": "HEIGHT, treatment mean", "setting": "[10]", "value": 26.1, "unit": "a cm"},
      {"measurement": "HEIGHT, percent of untreated check (APoC)", "setting": "[11]", "value": "(133.5%)"},
      {"measurement": "HEIGHT, treatment mean", "setting": "[11]", "value": 30.1, "unit": "be cm"},
      {"measurement": "HEIGHT, percent of untreated check (APoC)", "setting": "[12]", "value": "(193.2%)"},
      {"measurement": "HEIGHT, treatment mean", "setting": "[12]", "value": 29.9, "unit": "a cm"},
      {"measurement": "HEIGHT, percent of untreated check (APoC)", "setting": "[13]", "value": "(192.1%)"},
      {"measurement": "HEIGHT, treatment mean", "setting": "[13]", "value": 43.3, "unit": "a cm"},
      {"measurement": "HEIGHT, percent of untreated check (APoC)", "setting": "[14]", "value": "(153.4%)"},
      {"measurement": "HEIGHT, treatment mean", "setting": "[14]", "value": 23.8, "unit": "ab cm"},
      {"measurement": "HEIGHT, percent of untreated check (APoC)", "setting": "[15]", "value": "(163.1%)"},
      {"measurement": "HEIGHT, treatment mean", "setting": "[15]", "value": 36.8, "unit": "ab cm"},
      {"measurement": "HEIGHT, percent of untreated check (APoC)", "setting": "[16]", "value": "(105.4%)"},
      {"measurement": "HEIGHT, treatment mean", "setting": "[16]", "value": 16.3, "unit": "bc cm"},
      {"measurement": "HEIGHT, percent of untreated check (APoC)", "setting": "[17]", "value": "(82.8%)"},
      {"measurement": "HEIGHT, treatment mean", "setting": "[17]", "value": 18.7, "unit": "c cm"},
      {"measurement": "HEIGHT, percent of untreated check (APoC)", "setting": "[18]", "value": "(169.2%)"},
      {"measurement": "HEIGHT, treatment mean", "setting": "[18]", "value": 23.8, "unit": "abc cm"},
      {"measurement": "HEIGHT, percent of untreated check (APoC)", "setting": "[19]", "value": "(154.6%)"},
      {"measurement": "HEIGHT, treatment mean", "setting": "[19]", "value": 37.1, "unit": "a cm"},
      {"measurement": "HEIGHT, percent of untreated check (APoC)", "setting": "[20]", "value": "(181.4%)"},
      {"measurement": "HEIGHT, treatment mean", "setting": "[20]", "value": 25.5, "unit": "ab cm"},
      {"measurement": "HEIGHT, percent of untreated check (APoC)", "setting": "[21]", "value": "(134.7%)"},
      {"measurement": "HEIGHT, treatment mean", "setting": "[21]", "value": 32.3, "unit": "a cm"},
      {"measurement": "HEIGHT, percent of untreated check (APoC)", "setting": "[22]", "value": "(223.7%)"},
      {"measurement": "HEIGHT, treatment mean", "setting": "[22]", "value": 31.4, "unit": "a cm"},
      {"measurement": "HEIGHT, percent of untreated check (APoC)", "setting": "[23]", "value": "(199.1%)"},
      {"measurement": "HEIGHT, treatment mean", "setting": "[23]", "value": 47.8, "unit": "a cm"},
      {"measurement": "HEIGHT, percent of untreated check (APoC)", "setting": "[24]", "value": "(157.7%)"},
      {"measurement": "HEIGHT, treatment mean", "setting": "[24]", "value": 22.2, "unit": "abc cm"},
      {"measurement": "HEIGHT, percent of untreated check (APoC)", "setting": "[25]", "value": "(100.0%)"},
      {"measurement": "HEIGHT, treatment mean", "setting": "[25]", "value": 24.0, "unit": "a cm"},
      {"measurement": "HEIGHT, percent of untreated check (APoC)", "setting": "[26]", "value": "(111.5%)"},
      {"measurement": "HEIGHT, treatment mean", "setting": "[26]", "value": 15.7, "unit": "bc cm"},
      {"measurement": "HEIGHT, percent of untreated check (APoC)", "setting": "[27]", "value": "(76.9%)"},
      {"measurement": "HEIGHT, treatment mean", "setting": "[27]", "value": 18.4, "unit": "a cm"}
    ]}
  ]
}
